Data: patent publication US20240018125A1, “CYCLIC ISOTHIOUREA DERIVATIVES AS CXCR4 MODULATORS” (ERMIUM THERAPEUTICS, priority 2020, published 2024)
Where a name gives a salt, the structure may show the parent alone.

Row | Structure (SMILES) | melting point
1 | CCCCC1CN=C(SCC2=CSC3=Nc4ccccc4CN23)N1 (stereo not drawn) (as salt: hydrochloride) [Example 29, 3-(((5-butyl-4,5-dihydro-1H-imidazol-2-yl)thio)methyl)-5H-thiazolo[2,3-b]quinazoline dihydrochloride] | 227 to 234 °C
2 | C1=C(CSC2=Nc3ccccc3C(c3ccccc3)N2)N2Cc3ccccc3CN=C2S1 (stereo not drawn) (as salt: hydrochloride) [Example 27, 3-(((4-phenyl-3,4-dihydroquinazolin-2-yl)thio)methyl)-5,10-dihydrobenzo[e]thiazolo[3,2-a][1,3]diazepine dihydrochloride] | 203 to 210 °C
3 | C1=C(CSC2=NCc3ccccc3N2)N2C(=N[C@H](c3ccccc3)[C@H]2c2ccccc2)S1 (relative stereo) (as salt: hydrochloride) [Example 16, trans-3-(((3,4-dihydroquinazolin-2-yl)thio)methyl)-5,6-diphenyl-5,6-dihydroimidazo[2,1-b]thiazole dihydrochloride] | 175 to 185 °C
4 | COc1ccc(CC2(C)CN=C(SCC3=CSC4=NCc5ccccc5CN34)N2)cc1 (stereo not drawn) (as salt: hydrochloride) [Example 34, 3-(((5-(4-methoxybenzyl)-5-methyl-4,5-dihydro-1H-imidazol-2-yl)thio)methyl)-5,10-dihydrobenzo[e]thiazolo[3,2-a][1,3]diazepine dihydrochloride] | 173 to 180 °C
5 | CC1(C)CN=C(SCC2=CSC3=NCc4ccccc4CN23)N1 (as salt: hydrochloride) [Example 8, 3-(((5,5-dimethyl-4,5-dihydro-1H-imidazol-2-yl)thio)methyl)-5,10-dihydrobenzo[e]thiazolo[3,2-a][1,3]diazepine dihydrochloride] | 244 to 247 °C
6 | OC1(CSC2=NCc3ccccc3N2)CSC2=N[C@H](c3ccccc3)[C@@H](c3ccccc3)N21 (relative stereo) (as salt: hydrochloride) [Example 17, trans-3-(((3,4-dihydroquinazolin-2-yl)thio)methyl)-5,6-diphenyl-2,3,5,6-tetrahydroimidazo[2,1-b]thiazol-3-ol dihydrochloride] | 195 to 200 °C
7 | CC1(C)CN2C(CSC3=NCc4ccccc4CN3)=CSC2=N1 (as salt: hydrochloride) [Example 7, 3-(((2,5-dihydro-1H-benzo[e][1,3]diazepin-3-yl)thio)methyl)-6,6-dimethyl-5,6-dihydroimidazo[2,1-b]thiazole dihydrochloride] | 127 to 134 °C
8 | C1=C(CSC2=NCc3ccccc3N2)N2C(=N[C@H]3CCCC[C@@H]32)S1 (relative stereo) (as salt: hydrochloride) [Example 13, trans-3-(((3,4-dihydroquinazolin-2-yl)thio)methyl)-4a,5,6,7,8,8a-hexahydrobenzo[4,5]imidazo[2,1-b]thiazole dihydrochloride] | 240 to 244 °C
9 | CN1CCN=C1SCC1=CSC2=Nc3ccccc3CN12 (as salt: hydrochloride) [Example 36, 3-(((1-methyl-4,5-dihydro-1H-imidazol-2-yl)thio)methyl)-5H-thiazolo[2,3-b]quinazoline dihydrochloride] | 247 to 248 °C
10 | C1=C(CSC2=NCc3ccccc3N2)N2Cc3ccccc3CN=C2S1 (as salt: hydrochloride) [Example 11, 3-(((3,4-dihydroquinazolin-2-yl)thio)methyl)-5,10-dihydrobenzo[e]thiazolo[3,2-a][1,3]diazepine dihydrochloride] | 189 to 193 °C
11 | C1=C(CSC2=NCC(Cc3ccccc3)N2)N2Cc3ccccc3N=C2S1 (stereo not drawn) (as salt: hydrochloride) [Example 33, 3-(((5-benzyl-4,5-dihydro-1H-imidazol-2-yl)thio)methyl)-5H-thiazolo[2,3-b]quinazoline dihydrochloride] | > 250 °C
12 | Fc1cccc2c1CN=C(SCC1=CSC3=NCc4ccccc4CN13)N2 (as salt: hydrochloride) [Example 23, 3-(((5-fluoro-1,4-dihydroquinazolin-2-yl)thio)methyl)-5,10-dihydrobenzo[e]thiazolo[3,2-a][1,3]diazepine dihydrochloride] | > 240 °C
13 | CC1(C)CN2C(CSC3=NCc4ccccc4N3)=CSC2=N1 (as salt: hydrochloride) [Example 3, 3-(((3,4-dihydroquinazolin-2-yl)thio)methyl)-6,6-dimethyl-5,6-dihydroimidazo[2,1-b]thiazole dihydrochloride] | 245 to 249 °C

Now from value to molecule:

Row | melting point | Structure (SMILES)
14 | > 250 °C | Fc1ccc2c(c1)CN1C(CSC3=NCc4ccccc4N3)=CSC1=N2 (as salt: hydrochloride) [Example 84, 3-(((1,4-dihydroquinazolin-2-yl)thio)methyl)-7-fluoro-5H-thiazolo[2,3-b]quinazoline dihydrochloride]
15 | 195 to 203 °C | c1ccc2c(c1)CN=C(SCCN1CCCC1)N2 (as salt: hydrochloride) [Example 77, 2-((2-(pyrrolidin-1-yl)ethyl)thio)-1,4-dihydroquinazoline dihydrochloride]
16 | 180 to 190 °C | C1=C(CSC2=NCc3ccccc3N2)N2C[C@H](Cc3c[nH]c4ccccc34)N=C2S1 (as salt: hydrochloride) [Example 109, (S)-6-((1H-indol-3-yl)methyl)-3-(((1,4-dihydroquinazolin-2-yl)thio)methyl)-5,6-dihydroimidazo[2,1-b]thiazole dihydrochloride]
17 | 50 to 58 °C | CCCCN1C(SCC2=CSC3=NC(Cc4ccccc4)CN23)=NCc2ccccc21 (stereo not drawn) (as salt: hydrochloride) [Example 99, 6-benzyl-3-(((1-butyl-1,4-dihydroquinazolin-2-yl)thio)methyl)-5,6-dihydroimidazo[2,1-b]thiazole dihydrochloride]
18 | 50 to 52 °C | CC1(C)N=C(SCC2=CSC3=NC(Cc4ccccc4)CN23)Nc2ccccc21 (stereo not drawn) (as salt: hydrochloride) [Example 87, 6-benzyl-3-(((4,4-dimethyl-1,4-dihydroquinazolin-2-yl)thio)methyl)-5,6-dihydroimidazo[2,1-b]thiazole dihydrochloride]
19 | 94 to 108 °C | c1ccc(C2CCCN2CCSC2=NCc3ccccc3N2)cc1 (stereo not drawn) (as salt: hydrochloride) [Example 128, 2-((2-(2-phenylpyrrolidin-1-yl)ethyl)thio)-1,4-dihydroquinazoline dihydrochloride]
20 | 180 to 185 °C | CC1(C)c2ccccc2N=C2SC=C(CSC3=NCc4ccccc4N3)N21 (as salt: hydrochloride) [Example 95, 3-(((1,4-dihydroquinazolin-2-yl)thio)methyl)-5,5-dimethyl-5H-thiazolo[2,3-b]quinazoline dihydrochloride]
21 | 230 to 235 °C | CC1(c2ccccc2)CN2C(CSC3=NCc4ccccc4N3)=CSC2=N1 (stereo not drawn) (as salt: hydrochloride) [Example 38, 3-(((3,4-dihydroquinazolin-2-yl)thio)methyl)-6-methyl-6-phenyl-5,6-dihydroimidazo[2,1-b]thiazole dihydrochloride]
22 | 190 to 195 °C | Ic1cc2c(c(I)c1I)NC(SCCN1CCCC1)=NC2 (as salt: hydrochloride) [Example 134, 6,7,8-triiodo-2-((2-(pyrrolidin-1-yl)ethyl)thio)-1,4-dihydroquinazoline dihydrochloride]
23 | 150 to 164 °C | COc1ccc(C[C@@H]2CN3C(CSC4=NCc5ccccc5N4)=CSC3=N2)cc1 (as salt: hydrochloride) [Example 124, (R)-3-(((1,4-dihydroquinazolin-2-yl)thio)methyl)-6-(4-methoxybenzyl)-5,6-dihydroimidazo[2,1-b]thiazole dihydrochloride]
24 | 177 to 182 °C | IC1=C(CSC2=NCc3ccccc3N2)N2CC(Cc3ccccc3)N=C2S1 (stereo not drawn) (as salt: hydrochloride) [Example 110, 6-benzyl-3-(((1,4-dihydroquinazolin-2-yl)thio)methyl)-2-iodo-5,6-dihydroimidazo[2,1-b]thiazole dihydrochloride]
25 | 155 to 160 °C | Fc1ccc(CC2CN3C(CSC4=NCc5ccccc5N4)=CSC3=N2)cc1 (stereo not drawn) (as salt: hydrochloride) [Example 196, 3-(((1,4-dihydroquinazolin-2-yl)thio)methyl)-6-(4-fluorobenzyl)-5,6-dihydroimidazo[2,1-b]thiazole dihydrochloride]
26 | 158 to 170 °C | Cc1ccc(CC2CN3C(CSC4=NCc5ccccc5N4)=CSC3=N2)cc1 (stereo not drawn) (as salt: hydrochloride) [Example 122, 3-(((1,4-dihydroquinazolin-2-yl)thio)methyl)-6-(4-methylbenzyl)-5,6-dihydroimidazo[2,1-b]thiazole dihydrochloride]
27 | 142 to 148 °C | C1=C(CSC2=NCc3ccccc3N2)N2CC(Cc3ccccc3)N=C2S1 (stereo not drawn) (as salt: hydrochloride) [Example 65, 6-benzyl-3-(((3,4-dihydroquinazolin-2-yl)thio)methyl)-5,6-dihydroimidazo[2,1-b]thiazole dihydrochloride]
28 | 185 to 190 °C | C1=C(CSC2=NCc3ccccc3N2)N2CC(c3ccccc3)N=C2S1 (stereo not drawn) (as salt: hydrochloride) [Example 120, 3-(((1,4-dihydroquinazolin-2-yl)thio)methyl)-6-phenyl-5,6-dihydroimidazo[2,1-b]thiazole dihydrochloride]
29 | 80 to 88 °C | CC1N=C(SCC2=CSC3=NC(Cc4ccccc4)CN23)Nc2ccccc21 (stereo not drawn) (as salt: hydrochloride) [Example 113, 6-benzyl-3-(((4-methyl-1,4-dihydroquinazolin-2-yl)thio)methyl)-5,6-dihydroimidazo[2,1-b]thiazole dihydrochloride]
30 | 178 to 182 °C | CC1CCN(CCSC2=NCc3ccccc3N2)C1 (stereo not drawn) (as salt: hydrochloride) [Example 138, 2-((2-(3-methylpyrrolidin-1-yl)ethyl)thio)-1,4-dihydroquinazoline dihydrochloride]
